Assay results taken from patent publication US20260265302A1, “PEPTIDE WITH ACTIVITY OF PROMOTING HAIR GROWTH OR INHIBITING HAIR LOSS AND USE THEREOF” (CAREGEN CO., LTD., priority 2023, published 2026).
Entries after “also recorded” stand apart in the source; their conditions may differ.

Legend:
[1] = test system: human hair follicle dermal papilla cells; assay: Hair follicle cell proliferation (SRB staining, absorbance 560 nm); type: cell-based; conditions: HHFDPC; for proliferation effect on hair follicle cells (in words): peptides at different concentrations (FIG. 1, FIG. 5)
Procedure: To confirm the effect of a peptide consisting of the amino acid sequence of SEQ ID NO: 1 on promoting the proliferation of hair follicle cells. Specifically, human hair follicle dermal papilla cells were seeded in a 96-well plate at a density of 4×10^3 cells/well and cultured for 24 hours. After replacing with serum-free mesenchymal stem cell medium, the cells were cultured for 24 hours. The above peptide was treated at concentrations of 10 μM, 50 μM, or 100 μM, respectively, and incubated at 37° C. for 72 hours. As a positive control group, 1 μM of Minoxidil, a hair loss treatment drug, was treated. After completion of culturing, the culture supernatant was removed and the cells were fixed using ethanol. After washing with PBS, staining was performed by treating with SRB solution. After washing with 1% acetic acid, cells were observed under a microscope and destained by treating with 20 mM tris solution. Cell viability was measured by measuring absorbance at a wavelength of 560 nm using a spectrophotometer (SpectraMax iD3, Molecular Devices (USA, CA)).
The proliferation effects of a novel peptide consisting of the amino acid sequence of SEQ ID NO: 1 and a peptide consisting of the amino acid sequence of SEQ ID NO: 10 disclosed in KR10-1285259 (Table 3) on hair follicle cell proliferation were compared. The experiment was conducted in the same manner as described in Example 2, and the cell proliferation effect was measured after treating HHFDPC with peptides at different concentrations.

β-catenin = assay: Nuclear β-catenin western blot (promotion of proliferation mechanism of hair follicle cells); type: cell-based, human; conditions: HHFDPC; for translocation of β-catenin from the cytoplasm to the nucleus (in words): peptides at various concentrations (FIG. 6)
Procedure: To confirm the effect of a peptide consisting of the amino acid sequence of SEQ ID NO: 1 on promoting the proliferation mechanism of hair follicle cells. Specifically, human hair follicle dermal papilla cells were seeded in a 6-well plate at a density of 4×10^5 cells/well and cultured for 24 hours. After replacing with serum-free mesenchymal stem cell medium, the cells were cultured for 24 hours. A peptide was treated at concentrations of 10 μM, 50 μM, or 100 μM, respectively, and incubated at 37° C. for 24 hours. As a positive control group, 10 ng/ml of recombinant human Wnt-3a protein was treated. After washing with PBS, nucleoproteins were isolated using a nucleoprotein extraction kit (Thermo scientific, USA) and quantified with BCA to prepare equal amounts of protein samples. The proteins separated by electrophoresis using a 10% SDS-PAGE gel were transferred to a PVDF membrane. Blocking was performed at room temperature for 30 minutes using 5% skim milk. β-catenin (cell signaling, USA) and HDAC1 (santa cruz, USA) antibodies were diluted 1:1000 in 3% BSA and reacted with the membrane at 4° C. for 16 hours. The membrane was washed three times with 0.1% PBS-T (0.1% Tween-20 in PBS) for 15 minutes each. The secondary antibody was diluted 1:2000 in 5% skim milk and reacted at room temperature for 1 hour. The membrane was then washed three times with 0.1% PBS-T (0.1% Tween-20 in PBS) for 15 minutes each. After treatment with ECL solution (GE Healthcare, USA), the membrane was detected.
The proliferation-promoting effects of a novel peptide consisting of the amino acid sequence of SEQ ID NO: 1 and a peptide consisting of the amino acid sequence of SEQ ID NO: 10 on hair follicle cells were compared. The experiment was conducted in the same manner as described in Example 3, in which HHFDPC was treated with peptides at various concentrations and the translocation of β-catenin from the cytoplasm to the nucleus was measured.

Lef-1 = assay: RT-PCR expression of Lef-1 in hair follicle dermal papilla cells; type: cell-based, human; conditions: HHFDPC, peptide 10, 50 or 100 μM, 24 hours, maximum effect (FIG. 3)
Procedure: (§1) To confirm the effect of a peptide consisting of the amino acid sequence of SEQ ID NO: 1 on promoting hair follicle cell activity. Human hair follicle dermal papilla cells were seeded in 6-well plates at a density of 4×10^5 cells/well and cultured for 24 hours. After replacing with serum-free mesenchymal stem cell medium, the cells were cultured for 24 hours. A peptide was treated at concentrations of 10 μM, 50 μM, or 100 μM, respectively, and incubated at 37° C. for 24 hours. As a positive control group, 10 ng/mL of recombinant human Wnt-3a protein was treated. After washing with PBS, RNA was isolated by treating with 300 μL of easy blue (intron, Korea). After RNA quantification, cDNA synthesis was performed using a cDNA synthesis kit (enzynomics, Korea). Electrophoresis was performed on a 1.5% agarose gel and band detection was performed using a Bio-Rad gel image system.

Cyclin D1 = assay: RT-PCR expression of Cyclin D1 in hair follicle dermal papilla cells; type: cell-based, human; conditions: HHFDPC, peptide 10, 50 or 100 μM, 24 hours, maximum effect (FIG. 3)
Procedure: as §1

c-Myc = assay: RT-PCR expression of c-Myc in hair follicle dermal papilla cells; type: cell-based, human; conditions: HHFDPC, peptide 10, 50 or 100 μM, 24 hours, maximum effect (FIG. 3)
Procedure: as §1

DKK-1 = assay: DHT-induced DKK-1 expression western blot in hair follicle dermal papilla cells; type: cell-based, human; conditions: HHFDPC; for inhibiting effect on DKK-1 expression (in words): DHT-induced, peptides at different concentrations (FIG. 4, FIG. 7)
Procedure: To confirm whether a peptide consisting of the amino acid sequence of SEQ ID NO: 1 inhibits the expression of DKK-1, a hair loss-related factor, in hair follicle cells. Human hair follicle dermal papilla cells were seeded in 6-well plates at a density of 4×10^5 cells/well and cultured for 24 hours. After replacing with serum-free mesenchymal stem cell medium, the cells were cultured for 24 hours. The peptides were treated at concentrations of 10 μM, 50 μM, or 100 μM, respectively, and simultaneously treated with DHT, an inducer of hair loss protein DKK-1, at a concentration of 100 nM. As a positive control group, 5 μM of finasteride, a drug that inhibits androgens, was treated. DHT is known as a hair loss hormone that increases the expression of DKK-1 (Dickkopf-related protein 1), a hair loss-inducing factor, by activating androgen receptors. After culturing at 37° C. for 24 hours, the cells were washed with PBS, treated with lysis buffer to prepare cell lysates, and equal amounts of protein samples were prepared by BCA quantification. Electrophoresis was performed using a 10% SDS-PAGE gel. Proteins separated by SDS PAGE were transferred to a PVDF membrane. Blocking was performed at room temperature for 30 minutes using 5% skim milk. DKK-1 (cell signaling, USA) antibody was diluted 1:1000 in 3% BSA and reacted with the membrane at 4° C. for 16 hours. The membrane was then washed three times with 0.1% PBS-T (0.1% Tween-20 in PBS) for 15 minutes each. The secondary antibody was diluted 1:2000 in 5% skim milk and reacted at room temperature for 1 hour. The membrane was then washed three times with 0.1% PBS-T (0.1% Tween-20 in PBS) for 15 minutes each. After treatment with ECL solution (GE Healthcare, USA), protein band detection and densitometry were performed using ImageQuant 800 (Amersham, USA).
The effect of inhibiting the expression of hair loss-related factors was compared between the novel peptide consisting of the amino acid sequence of SEQ ID NO: 1 and the peptide consisting of the amino acid sequence of SEQ ID NO: 10. The experiment was conducted in the same manner as described in Example 5, and it was confirmed whether the expression of DKK-1, a hair loss-related factor, was inhibited after treating HHFDPC with peptides at different concentrations.

Row | Sequence | proliferation increase of hair follicle cells ([1]; peptide 10, 50 or 100 μM, 72 hours, maximum effect (FIG. 1)) | proliferation effect on hair follicle cells (in words) [1] | hair follicle cell proliferation promotion activity compared with the known peptide ([1]; same concentration, SEQ ID NO: 1 vs SEQ ID NO: 10 (FIG. 5)) | nuclear translocation of β-catenin from the cytoplasm to the nucleus, increase (β-catenin; peptide 10, 50 or 100 μM, 24 hours, nucleoprotein western blot, maximum effect (FIG. 2)) | expression of β-catenin (in words) (β-catenin; peptide 10, 50 or 100 μM, 24 hours, western blot (FIG. 2)) | translocation of β-catenin from the cytoplasm to the nucleus (in words) (β-catenin) | proliferation mechanism promoting activity compared with the known peptide (β-catenin; same concentration, SEQ ID NO: 1 vs SEQ ID NO: 10 (FIG. 6)) | Lef-1 expression increase compared to the control group (Lef-1) | Cyclin D1 expression increase compared to the control group (Cyclin D1) | c-Myc expression increase compared to the control group (c-Myc) | inhibiting effect on DKK-1 expression (in words) (DKK-1) | DKK-1 expression level reduction compared to the negative control group (DHT treatment group) (DKK-1; high-concentration peptide treatment group, DHT 100 nM, 24 hours, western blot (FIG. 4)) | ability to inhibit the expression of DKK-1 compared with the known peptide (DKK-1; same concentration, SEQ ID NO: 1 vs SEQ ID NO: 10 (FIG. 7))
1 | AERRREKCRC [SEQ ID NO: 1] | up to 155% | proliferation was induced in a concentration-dependent manner; also recorded: exhibit a proliferation effect on hair follicle cells in a concentration-dependent manner | significantly higher hair follicle cell proliferation promotion activity than the known peptide | up to 1.35 times | expression of β-catenin increases | promote the translocation of β-catenin from the cytoplasm to the nucleus in a concentration-dependent manner | significantly higher proliferation mechanism promoting activity than the known peptide | up to 3 times | up to 1.96 times | up to 1.62 times | exhibit an inhibiting effect on DKK-1 expression in a concentration-dependent manner; also recorded: inhibiting DKK-1 expression induced by DHT | about 50% | significantly higher ability to inhibit the expression of DKK-1 than the known peptide
2 | AERRRELCRC [SEQ ID NO: 10, reference compound] | – | exhibit a proliferation effect on hair follicle cells in a concentration-dependent manner | – | – | – | promote the translocation of β-catenin from the cytoplasm to the nucleus in a concentration-dependent manner | – | – | – | – | exhibit an inhibiting effect on DKK-1 expression in a concentration-dependent manner | – | –
